We go through ten compounds from patent publication US9388209B2, “2′, 3′-dideoxy-5-fluorouridine derivatives, a process for the manufacture thereof and application thereof” (ADAM MICKIEWICZ UNIVERSITY, priority 2014, dated 2016).

The structures appear in SMILES notation. In brackets after ≈: the same amount, converted by molar mass. Several values for one entry are separate records, joined by “and”; a condition that tells them apart may be missing. Equal entries are not always repeated.

A word on the IC50: it is the midpoint of a concentration-inhibition curve.

Data set [1] has as its system MCF-7 (breast cancer). Put plainly: Cytotoxicity test with sulphorhodamine B, MCF-7 line. As to conditions: for IC50: Homo sapiens, MCF7, 72 h, read-out: Cytotoxic activity IC50 MCF-7 line (breast cancer), 72 hours incubation, average of three independent determinations.
Description: (§1) Cytotoxicity tests were carried out using a standard procedure with sulphorhodamine B. They involved incubation of the cancer cell lines in the logarithmic growth phase for 72 hours with the compound tested and, subsequently, spectrophotometric determination of the degree of cell growth inhibition using adsorption of a dye (sulphorhodamine B) which binds cellular proteins.
(§2) Cells of the cell line tested in the logarithmic growth phase were seeded onto 24-well plates in a quantity of 20,000 cells/2 mL of the growth medium per well and, subsequently, incubated in an incubator at 37° C., in the 5% CO2 atmosphere for 24 hours.
(§3) Solutions of the test compounds were prepared in DMSO in the following concentration range: 0.05; 0.1; 0.5; 1; 5; 10; 50; 100; 500 μM.
(§4) The cells of the lines tested were treated with the solutions of the test compounds in a laminar-flow chamber which ensured sterile working conditions according to the following procedure: the first three wells were used as a blank: they contained 20 μL of DMSO only; successive solutions of the test compound were added to subsequent wells (20 μL), starting with the lowest concentration (three wells for each concentration level). Subsequently, the plates were placed in an incubator for 72 hours.
(§5) After the end of incubation, the adhered cells were fixed by adding 500 μL of cold (4° C. 50% trichloroacetic acid (TCA) and incubated at 4° C. for 1 hour. Subsequently, each well was rinsed with sterile water and dried. The operation was repeated five times. The fixed cells were stained for 30 minutes by adding 500 μL of 0.4% of a dye solution (sulphorhodamine B) dissolved in 1% acetic acid. Any unbound dye was removed by decanting it from the plate, and the cells were washed 4 times with 1% acetic acid. Subsequently, the plates were dried in air for approx. 5 minutes. Any unbound dye was dissolved by adding 1500 μL of 10 mM Tris-base buffer (trishydroxymethylaminomethane) to each well and shaken using an orbital shaker for 5 minutes. Subsequently, 200 μL of solution from each well was transferred to each of two wells on a new 96-well plate and absorption of the solutions was determined spectrophotometrically at a wavelength of 490-530 nm using a plate reader. Percentage inhibition of cell growth by the test compound was calculated assuming the absorption of the control solution as 100%.
(§6) Depending on the type of the cell line, the following growth media were used: • the MCF-7 line was grown in Dulbecco's Modified Eagle's Medium (DME) from Sigma (cat. no. D5796), • the HeLa and Hep-G2 lines were grown in PPMI-1640 Medium from Sigma (cat. no. R8758).
Data set [2] concerns HeLa (cervical cancer). Put plainly: Cytotoxicity test with sulphorhodamine B, HeLa line. As to conditions: for IC50: Homo sapiens, 72 h, read-out: Cytotoxic activity IC50 HeLa (cervical cancer), 72 hours incubation, average of three independent determinations.
Description: as §1, §2, §3, §4, §5, §6
In data set [3] the test system is HeLa (cervical cancer). Particulars: for Cytotoxic activity IC50 HeLa (cervical cancer): human, 72 h.
Description: as §1, §2, §3, §4, §5, §6
For the next data set, the system named is Hep-G2 (hepatic cancer). The data set is described as follows: Cytotoxicity test with sulphorhodamine B, Hep-G2 line. It counts as cell-based. Particulars: for fold higher activity than AddFU: Hep-G2, ratio of IC50; for IC50: Homo sapiens, HepG2, 72 hours incubation, average of three independent determinations, read-out: Cytotoxic activity IC50 Hep-G2 (hepatic cancer). The text has this:
The values are average results of three independent determinations.

Data set [4] concerns MCF-7 (breast cancer). Particulars: for Cytotoxic activity IC50 MCF-7 line (breast cancer): human, 72 h.
Description: as §1, §2, §3, §4, §5, §6
The subject of data set [5] is L1210 cancer in mice induced by MLV retroviruses. Particulars: literature (Colla et al. 1985); cited from earlier work.
For the next data set, the system named is sarcoma 180. Particulars: literature (Lin et al. 1983); cited from earlier work.

Take `C=CC1C[N@@]2CCC1C[C@H]2[C@H](OCc1cn(C2CC(n3cc(F)c(=O)[nH]c3=O)OC2CO)nn1)c1ccnc2ccc(OC)cc12` (stereo partly drawn) [PQN5FdU, 5-Fluoro-1-(5-hydroxymethyl-4-{4-[(6-methoxyquinolin-4-yl)-(5-vinyl-1-aza-bicyclo[2.2.2]oct-2-yl)-methoxymethyl]-[1,2,3]triazol-1-yl}-tetrahydrofuran-2-yl)-1H-pyrimidine-2,4-dione]: the IC50 with MCF-7 (breast cancer) [1] was 0.98 µg/mL to 1.5 µg/mL and 2.37 µM; with HeLa (cervical cancer) [2], 1.6 µg/mL to 2.8 µg/mL and 3.16 µM; in the data set on Hep-G2 (hepatic cancer), 6.2 µg/mL and 9.78 µM. For the same compound, in the data set with HeLa (cervical cancer) [3], the “Cytotoxic activity IC50 HeLa (cervical cancer)” value was found to be 2.0 µg/mL. Also, the “fold higher activity than AddFU” value with Hep-G2 (hepatic cancer) is given as “more than twice as high”. Also, the “Cytotoxic activity IC50 MCF-7 line (breast cancer)” value in the data set with MCF-7 (breast cancer) [4] is 1.5 µg/mL.
In the case of `O=c1[nH]c(=O)n(C2CC(n3cc(C4CN5CCC4C[C@@H]5[C@@H](O)c4ccnc5ccccc45)nn3)C(CO)O2)cc1F` (stereo partly drawn) [CN5FdU, 5-Fluoro-1-(5-hydroxymethyl-4-{4-[6-(hydroxy-quinolin-4-yl-methyl)-1-aza-bicyclo[2.2.2]oct-3-yl]-[1,2,3]triazol-1-yl}-tetrahydro-furan-2-yl)-1H-pyrimidine-2,4-dione], the IC50 in the data set on MCF-7 (breast cancer) [1] was 7 µg/mL and 12.4 µM; in the data set on HeLa (cervical cancer) [2] it was 7.9 µg/mL and 14 µM. For the same compound, in the data set on HeLa (cervical cancer) [3], the “cytotoxic activity in words, cervical cancer cells (HeLa line)” value (“cytotoxic activity in words … (HeLa line)” below) is listed as “medium active”.
As to `O=c1[nH]c(=O)n([C@H]2C[C@H](O)[C@@H](CO)O2)cc1F` [5-fluoro-2′-deoxyuridine, reference compound], the IC50 in the data set on MCF-7 (breast cancer) [1] was 2.81 µg/mL and 11.4 µM; in the data set on HeLa (cervical cancer) [2] it was 3.2 µg/mL and 13 µM.
For `C=CC1C[N@@]2CCC1C[C@@H]2C(OCc1cn(C2CC(n3cc(F)c(=O)[nH]c3=O)OC2CO)nn1)c1ccnc2ccccc12` (stereo partly drawn) [PCN5FdU, 5-Fluoro-1-(5-hydroxymethyl-4-{4-[quinolin-4-yl-(5-vinyl-1-aza-bicyclo[2.2.2]oct-2-yl)-methoxymethyl]-[1,2,3]triazol-1-yl}-tetrahydrofuran-2-yl)-1H-pyrimidine-2,4-dione], the IC50 was 27.2 µg/mL and 45.1 µM in the data set on MCF-7 (breast cancer) [1]; 27.6 µg/mL and 45.7 µM with HeLa (cervical cancer) [2]. Further, the “cytotoxic activity in words … (HeLa line)” value in the data set on HeLa (cervical cancer) [3] is recorded as “medium active”.
Take `C=CC1C[N@@]2CCC1C[C@H]2[C@H](OCc1cn(C2CC(n3cc(F)c(=O)[nH]c3=O)OC2CO)nn1)c1ccnc2ccccc12` (stereo partly drawn) [PCD5FdU, 5-Fluoro-1-(5-hydroxymethyl-4-{4-[quinolin-4-yl-(5-vinyl-1-aza-bicyclo[2.2.2]oct-2-yl)-methoxymethyl]-[1,2,3]triazol-1-yl}-tetrahydrofuran-2-yl)-1H-pyrimidine-2,4-dione]: the IC50 with MCF-7 (breast cancer) [1] was 13 µg/mL and 21.5 µM; in the data set on HeLa (cervical cancer) [2], 21.4 µg/mL and 35.5 µM. Further, in the data set on HeLa (cervical cancer) [3], the “cytotoxic activity in words … (HeLa line)” value is given as “medium active”.
As for `[N-]=[N+]=N[C@H]1C[C@H](n2cc(F)c(=O)[nH]c2=O)O[C@@H]1CO` [3′-azido-2′,3′-dideoxy-5-fluorouridine, reference compound], the IC50 in the data set on MCF-7 (breast cancer) [1] is 2.2 µg/mL and 8.11 µM; in the data set on HeLa (cervical cancer) [2], 3 µg/mL and 11.1 µM; in the data set on Hep-G2 (hepatic cancer) it was 16 µg/mL and 59 µM. Besides, the “IC50 against L1210 cancer” value in data set [5] is 34 µg/mL (≈ 125 µM). In the data set with sarcoma 180, the “activity against sarcoma 180 in vitro, in words” value is “weak activity”.
For `C=CC1C[N@@]2CCC1C[C@@H]2[C@@H](OCc1cn(C2CC(n3cc(F)c(=O)[nH]c3=O)OC2CO)nn1)c1ccnc2ccc(OC)cc12` (stereo partly drawn) [PQD5FdU, 5-Fluoro-1-(5-hydroxymethyl-4-{4-[(6-methoxyquinolin-4-yl)-(5-vinyl-1-aza-bicyclo[2.2.2]oct-2-yl)-methoxymethyl]-[1,2,3]triazol-1-yl}-tetrahydrofuran-2-yl)-1H-pyrimidine-2,4-dione], the IC50 in the data set on MCF-7 (breast cancer) [1] is 2.9 µg/mL and 4.58 µM; with HeLa (cervical cancer) [2], 2.8 µg/mL and 4.42 µM; in the data set on Hep-G2 (hepatic cancer) it was 6 µg/mL and 9.47 µM. Also, the “fold higher activity than AddFU” value in the data set with Hep-G2 (hepatic cancer) is reported as “more than twice as high”. The “cytotoxic activity in words, breast cancer cells” value in the data set on MCF-7 (breast cancer) [4] is “medium active”.
As to `O=c1[nH]c(=O)n(C2CC(n3cc(C4CN5CCC4C[C@H]5[C@H](O)c4ccnc5ccccc45)nn3)C(CO)O2)cc1F` (stereo partly drawn) [CD5FdU, 5-Fluoro-1-(5-hydroxymethyl-4-{4-[6-(hydroxy-quinolin-4-yl-methyl)-1-aza-bicyclo[2.2.2]oct-3-yl]-[1,2,3]triazol-1-yl}-tetrahydro-furan-2-yl)-1H-pyrimidine-2,4-dione], the IC50 in the data set with MCF-7 (breast cancer) [1] was 6.9 µg/mL and 12.2 µM; with HeLa (cervical cancer) [2], 7 µg/mL and 12.4 µM. In addition, the “cytotoxic activity in words … (HeLa line)” value in the data set on HeLa (cervical cancer) [3] was “medium active”.
As to `COc1ccc2nccc([C@H](O)[C@H]3CC4CC[N@]3CC4c3cn(C4CC(n5cc(F)c(=O)[nH]c5=O)OC4CO)nn3)c2c1` (stereo partly drawn) [QD5FdU, 5-Fluoro-1-[4-(4-{6-[hydroxy-(6-methoxyquinolin-4-yl)-methyl]-1-aza-bicyclo[2.2.2]oct-3-yl}-[1,2,3]triazol-1-yl)-5-hydroxymethyl-tetrahydro-furan-2-yl]-1H-pyrimidine-2,4-dione], the half-inhibitory concentration (IC50) was 0.98 µg/mL to 1.5 µg/mL and 1.65 µM with MCF-7 (breast cancer) [1]; 1.6 µg/mL to 2.8 µg/mL and 2.7 µM in the data set with HeLa (cervical cancer) [2]. For the same compound, the “Cytotoxic activity IC50 HeLa (cervical cancer)” value with HeLa (cervical cancer) [3] turned out to be 1.6 µg/mL. Also, the “Cytotoxic activity IC50 MCF-7 line (breast cancer)” value in the data set with MCF-7 (breast cancer) [4] was 0.98 µg/mL.
Consider `COc1ccc2nccc(C(O)[C@@H]3CC4CCN3CC4c3cn(C4CC(n5cc(F)c(=O)[nH]c5=O)OC4CO)nn3)c2c1` (stereo partly drawn) [QN5FdU, 5-Fluoro-1-[4-(4-{6-[hydroxy-(6-methoxyquinolin-4-yl)-methyl]-1-aza-bicyclo[2.2.2]oct-3-yl}-[1,2,3]triazol-1-yl)-5-hydroxymethyl-tetrahydro-furan-2-yl]-1H-pyrimidine-2,4-dione], for which the IC50 in the data set on MCF-7 (breast cancer) [1] was 0.16 µg/mL and 270 nM; in the data set on HeLa (cervical cancer) [2], 0.16 µg/mL and 270 nM; with Hep-G2 (hepatic cancer) it was 3.8 µg/mL and 6.4 µM. Moreover, the “fold higher activity than 5FdU” value in the data set on MCF-7 (breast cancer) [1] (MCF-7, ratio of IC50) is given as “more than 17.5 fold”; with HeLa (cervical cancer) [2] (ratio of IC50), “more than 20 fold”. The “fold higher activity than AddFU” value in the data set with MCF-7 (breast cancer) [1] (MCF-7, ratio of IC50) is listed as “more than 13 fold”; in the data set on HeLa (cervical cancer) [2] (ratio of IC50), “more than 18 fold”; with Hep-G2 (hepatic cancer), 4 fold.
